This is an account of results in patent US20140242600A1, “IMAGING THE HETEROGENEOUS UPTAKE OF RADIOLABELED MOLECULES IN SINGLE LIVING CELLS” (priority 2011, published 2014).

Assay [1] concerns HeLa cells transduced with HSV1-ttk. The assay is described as follows: FHBG accumulation in HeLa cells transduced with mrfp1/HSV1-ttk reporter, radioluminescence and fluorescence microscopy. Type of assay: cell-based, human. As to conditions: 300 μCi 18F-FHBG 2 hours. An excerpt:
To further exploit the microscope's ability to visualize both fluorescent and radioactive probe distributions, human cervical cancer cells (HeLa) were transduced with a dual fusion reporter vector, comprising reporter genes encoding the monomeric red fluorescent protein (mrfp1) and the mutant herpes simplex virus type 1 truncated thymidine kinase (HSV1-ttk). HSV1-ttk can selectively metabolize and trap radiolabeled substrates such as FHBG. Substrates such as 9-(4-[^18F]Fluoro-3hydroxymethylbutyl) guanine (^18F-FHBG) have low affinity for mammalian thymidine kinase (TK) enzymes but high affinity for HSV1-TK. FHBG is selectively metabolized and trapped within transduced cells so it can be used to image cell trafficking in living subjects with PET.
PCR amplification and standard cloning techniques were used to insert the mrfp and ttk genes from plasmid pCONA3.1-CMV-hrl-mrfp-ttk. Lentiviral EF1-gfp vectors were obtained and the gfp fragment was removed from the vector and replaced by mrfp-ttk. For PCR amplifications, different 5′ and 3′ end primers were used to generate the fusion vector (EF1-mrfp-ttk).
HeLa human cervical cancer and 293T human embryonic kidney cells were acquired and cultured in high-glucose Dulbecco's modified eagle medium supplemented with 10% fetal bovine serum. 293T cells were used to produce the lentivirus following standard procedures. HeLa cells were transduced with concentrated lentivirus for 48 hours and then trypsinized and seeded directly onto a scintillator plate coated with fibronectin (10 μg/ml), one day before imaging.
For imaging of cell transduction with FHBG and RFP, transduced HeLa cells were incubated for 2 hours with 300 μCi of ^18F-FHBG.
In transduced cells, accumulation of FHBG was coincident with expression of mrfp1 measured by fluorescence microscopy. A brightfield image (FIG. 5A), a radioluminescence image (FIG. 5B) and a fluorescence image (FIG. 5C) were obtained from the same field. It was seen that 88% of the cells visible on the brightfield image (217/245) were clearly distinguishable both on radioluminescence (FIG. 5B) and fluorescence images (FIG. 5C), while only 9% (21/245) could not be seen on either image. The remaining 7 cells were excluded from the analysis due to ambiguous radioluminescence intensity caused by the proximity to a strongly positive cell.

Assay [2] deals with mammalian thymidine kinase (TK) enzymes. The note with it: background statement; cited from earlier work.
A further assay concerns wild-type HeLa cells. Description: FHBG uptake in wild-type HeLa cells, radioluminescence microscopy. Type of assay: cell-based, human. The note with it: FHBG 300 μCi, 2 h. An excerpt:
Generally, radioluminescence signals for FHBG-positive and FHBG-negative cells were more distinctly separated than fluorescence signals for RFP-positive and RFP-negative cells.

Assay [3] deals with HSV1-TK (Human herpesvirus 1). The note with it: background statement; cited from earlier work.
A further assay has as its system HeLa cells. Description: Radioluminescence microscopy of FDG uptake in HeLa cells on scintillator plate. The class given is cell-based. As to conditions: HeLa cells fasted 2 h, 400 μCi FDG 20 min 37° C., 20 minute exposure. As for the experimental part: To visualize the uptake of radiotracer at the microscopic level, cells were cultured directly on a scintillating plate made of a material that converts incident beta radiation into optical photons via radioluminescence. In these experiments, scintillation plates were used with dimensions 10 mm×10 mm×0.5 mm that were made of CdWO4, a dense, high-Z, non-hygroscopic material, with both sides polished to allow for concurrent optical imaging (MTI Corp.). In one experiment, HeLa cells were seeded and cultured on the scintillating plate, immersed in cell culture medium (Dulbecco's Modified Eagle Medium containing 10% fetal calf serum) for 12-18 hours. After the cells had adhered to the surface of the scintillator plate and divided adequately, they were fasted for two hours in glucose-free cell medium and incubated for 20 minutes at 37° C. with 400 μCi of ^18F-fluorodeoxyglucose (FDG). […]
Radioluminescence images were taken with an EM gain of 251/1200, the excitation shutter closed, and the emission shutter open. […] Then, in luminescence mode, the image sharpness was optimized by varying the focal distance while acquiring 5 minute-exposure images. […]

The subject of assay [4] is MDA-MB-231 human breast cancer cells. Description: Single-cell FDG uptake at a fixed time-point, radioluminescence and fluorescence microscopy. The note with it: glucose-deprived 1 hour. Type of assay: cell-based.
Source text: In this illustration, the common radiotracer [^18F]fluorodeoxyglucose (FDG) was used. […] The radioluminescence microscopy set-up consisted of cells adhering to a 100 μm-thin CdWO4 scintillator plate that was immersed in a glass-bottom dish filled with cell culture medium as shown schematically in FIG. 2. The dish was imaged using an inverted microscope fitted with a high-NA objective and an electron-multiplying charge-coupled device (EM-CCD).
Brightfield images were acquired with no EM gain, a neutral-density filter on the excitation, and the emission shutter open. […] The brightfield mode was used to set the microscope into focus. […] For fluorescence microscopy, a 460 nm/535 nm filter set for 2-NBDG imaging (Chroma, D460/50x and D535/40m) and a 540 nm/600 nm filter set for RFP imaging (Chroma, HQ540/40x and HQ600/50m) were used.
One side of the scintillator plate was coated with fibronectin (10 μg/ml) to allow the cells to attach. After the plate had dried, the cells were seeded by placing a 50 μl drop containing 10^4 cells on to the fibronectin-coated plate.
After washing the cells, brightfield, radioluminescence and fluorescence micrographs were acquired.
To measure radiotracer uptake in single cells, circular regions of interest (ROI's; diameter, 24 μm) were manually placed on the cells using the brightfield micrograph. […] The same procedure was also applied to fluorescence micrographs.
The test system of assay [5] is breast cancer cells (MDA-MB-231). The assay is described as follows: Single-cell FDG uptake and efflux over time (pharmacokinetic study), serial radioluminescence imaging. Type of assay: cell-based, human. As for the experimental part: To investigate the utility of radioluminescence microscopy for single-cell pharmacokinetic studies, FDG uptake, FDG efflux and FDG withdrawal conditions were analyzed. FDG uptake in breast cancer cells (MDA-MB-231) over time was monitored by depriving cells of glucose for 1 hour and then adding 5 μCi of FDG to the medium. Serial brightfield and radioluminescence images were acquired every 6 minutes for a period of 8 hours.
To monitor FDG efflux, breast cancer cells (MDA-MB-231) were subjected to conditions known to minimize FDG influx, i.e. thorough competition from glucose and withdrawal of FDG.
The influx of FDG into glucose-deprived cells was described using the following two-tissue compartmental kinetic model:
where Ca is the extracellular FDG concentration (assumed to be fixed); C(t) is the time-dependent intracellular FDG concentration (including free FDG and bound FDG-6-P); and K1, k2 and k3 are the rate constants representing influx, efflux, and irreversible phosphorylation of FDG, respectively. Fort>>1/(k2+k3, the intracellular and extracellular compartments are in equilibrium, and the intracellular concentration of FDG increases linearly with time due to irreversible trapping of FDG. The parameters of this linear rise (i.e. slope and intercept) are the Patlak coefficients. The slope of the linear rise is the product of two terms, namely K1 the influx rate, and k3/(k2+k3) is the fraction of the intracellular FDG irreversibly metabolized. A non-linear weighted least-squares fitting was used to estimate the parameters of the model. The fitting weights were adjusted to decrease the contribution of later time points, which have higher noise due to radioactive decay.
A mathematical model was also derived to represent FDG efflux from a cell. The model assumed that (1) following withdrawal of FDG, the concentration of FDG in the cell culture medium remained negligible due to the large extracellular volume (0.2 ml), and (2) k3>>k4. Under these assumptions, FDG concentration within a single cell can be described by the sum of a slow and a fast exponential decay.
Efflux of FDG from cells was modeled using a two-tissue compartmental model:
where a1 and a2 are positive coefficients that depend on the initial conditions, and λ1 and λ2 are the eigenvalues of the differential system of equations describing transport of FDG between compartments. The rate constant k4 which models the possible dephosphorylation of FDG-6-phosphate (FDG-6-P) was included in this model but assumed to be much smaller than k3. Furthermore, due to the large extracellular volume (0.2 ml), the concentration of FDG in the cell culture medium was assumed to remain negligible after withdrawal of FDG. Under these assumptions, the eigenvalues can be approximated as
These rate parameters were estimated by fitting the efflux model to the measured time-activity curves. For cells for which the solution of the fit yielded λ1≈λ2 or λ2<1 min^−1, the efflux curve was fitted with a single exponential function. In the special case of irreversible trapping (k4=0), the model is described by a single exponential decay with rate: λ1=k2+k3. The model was in agreement with radioluminescence measurements of single cells, confirming that two processes are occurring concurrently at different rates. Unbound FDG contained within the cell quickly diffuses out following concentration gradients, whereas FDG-6-phosphate (FDG-6-P) requires slow dephosphorylation to cross the cell membrane.

The structures appear in SMILES notation.

Sequence of HSV1-TK (Human herpesvirus 1) (P0DTH5 whole entry): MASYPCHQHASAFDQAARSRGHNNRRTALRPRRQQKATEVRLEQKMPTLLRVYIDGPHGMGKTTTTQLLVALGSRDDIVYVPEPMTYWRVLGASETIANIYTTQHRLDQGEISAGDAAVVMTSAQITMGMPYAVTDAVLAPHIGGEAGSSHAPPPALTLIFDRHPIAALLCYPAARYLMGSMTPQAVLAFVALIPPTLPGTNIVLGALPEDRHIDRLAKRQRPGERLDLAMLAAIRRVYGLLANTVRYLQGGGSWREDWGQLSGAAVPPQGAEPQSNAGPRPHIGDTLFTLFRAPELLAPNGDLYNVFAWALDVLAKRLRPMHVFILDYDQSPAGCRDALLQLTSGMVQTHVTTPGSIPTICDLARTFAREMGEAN

As to `Nc1nc2c(ncn2CCC(CO)C[18F])c(=O)[nH]1` (stereo not drawn) [FHBG, 9-(4-[^18F]-fluoro-3-hydroxy-methylbutyl) guanine], in assay [1] (100× magnification), the “radiotracer uptake pattern in transduced cells” value is “focal radiotracer uptake”. In assay [1] (21/245 cells), the “cells that could not be seen on either radioluminescence or fluorescence image” value amounted to 9%. In addition, the “cells visible on brightfield clearly distinguishable both on radioluminescence and fluorescence images” value in assay [1] (217/245 cells) is recorded as 88%. Also, in assay [1] (transduced HeLa cells), the “correlation (r) of RFP fluorescence intensity with FHBG radioluminescence intensity” value is reported as 0.34. In addition, the “affinity for mammalian thymidine kinase (TK) enzymes” value in assay [2] is reported as “low affinity”. Also, the “radioluminescence signal in wild-type HeLa cells” value in the assay on wild-type HeLa cells is reported as “no measurable radioluminescence signal”. Moreover, the “affinity for HSV1-TK” value in assay [3] was “high affinity”.
Take `OC[C@H]1OC(O)[C@H]([18F])[C@@H](O)[C@@H]1O` (stereo partly drawn) [FDG, ^18F-fluorodeoxyglucose]: the “colocalization between cell outline (brightfield) and radioluminescence intensity” value in the assay on HeLa cells is “good colocalization”. Also, in assay [4] (FDG 400 μCi 1 hour 37° C.), the “cell-to-cell variation of radioluminescence intensity (FDG uptake)” value was “varied significantly from cell to cell”. Moreover, the “correlation (r) of FDG uptake with uptake of 2-NBDG in single cells” value in assay [4] (FDG 400 μCi + 2-NBDG 100 μM 1 hour 37° C., P<10^−5) amounted to 0.74. For the same compound, the “cell radioactivity after withdrawal of FDG from the media” value in assay [5] (cells previously incubated with FDG 400 μCi, 1 hour) is listed as “fast decrease in cell radioactivity”. For the same compound, the “cell radioactivity after addition of glucose to the medium” value in assay [5] (glucose 25 mM added at 2 hours) is given as “decline in cell radioactivity”. The “time at which the majority of cells stopped accumulating FDG” value in assay [5] (glucose-deprived 1 hour, 5 μCi FDG in medium) is reported as “approximately 3 hours”. Also, the “time course of cell radioactivity (FDG uptake)” value in assay [5] (glucose-deprived 1 hour, 5 μCi FDG, images every 6 minutes for 8 hours) is “linear increase in radioactivity, followed by a plateau and a slow decrease after 3 hours”. In assay [5] (two-tissue compartmental kinetic model of FDG influx), the “variation of Patlak coefficients across cells” value is reported as “Large variations”.
